In one experiment the test system is caspase-3. Particulars: cited from earlier work.
For the next experiment, the system named is caspase-8. The conditions noted are these: cited from earlier work.
The test system of experiment [1] is WiDr cell lines of human colon cancer. The conditions noted are these: JP 9-227,549 and JP 8-173,167; cited from earlier work.
In experiment [2] the test system is PC-3 cell lines of human prostate cancer. The conditions noted are these: JP 9-227,549 and JP 8-173,167; cited from earlier work.
In the next experiment the test system is protein synthesis. The conditions noted are these: cited from earlier work.
For another experiment, the system named is WiDr cells. Particulars: 1.8 mg/kg by intraperitoneal injection; higher degree than TNP-470; cited from earlier work.
Experiment [3] has as its system Lewis lung adenocarcinoma. Particulars: cited from earlier work.
Experiment [4] relates to haploid and diploid cells. The conditions noted are these: at concentrations that do not affect gross protein biosynthesis; cited from earlier work.
Experiment [5] deals with human umbilical vein endothelial cells (HUVEC). Particulars: cited from earlier work.
The next experiment deals with B16-BL6 melanoma cells. The conditions noted are these: same dosage (1.8 mg/kg); cited from earlier work.
Another experiment deals with capillary tube formation. The conditions noted are these: rat aorta matrix culture model; cited from earlier work.
The test system of another experiment is S. albus J1074/pEM4A. The experiment can be described thus: soaked disk bioassay, control strain. Type of experiment: cell-based, Streptomyces albus J1074. Particulars: disks with borrelidin at 100 & 200 μg/ml, Bennett's agar, overnight at 30° C. The source says:
The self-resistance of S. parvulus strains to borrelidin is most probably due to the product of borO, which encodes a threonyl tRNA synthetase homologue. Threonyl-tRNA synthetase is the molecular target of borrelidin in sensitive strains (Paetz & Ness, 1973). It is predicted that BorO is resistant to the action of borrelidin, and acts to produce threonyl-tRNAs in cells that make borrelidin, effectively complementing the normal threonyl-tRNA which are inhibited. To verify this hypothesis borO was amplified by PCR and cloned in to the expression vector pEM4A, which puts borO under the control of the strong constitutive promoter ermE* (example 26). The resulting vector pborOR was then transformed into the borrelidin-sensitive strain Streptomyces albus J1074 (Chater & Wilde, 1980).
Resistance to borrelidin was assayed on Bennett's agar containing apramycin at 25 μg/ml. Spores of S. albus J1074/pborOR and the control S. albus J1074/pEM4A were spread onto plates and then disks containing borrelidin at 100 & 200 μg/ml were laid upon the lawn of spores and incubated overnight at 30° C.

Experiment [6] has as its system endothelial cell proliferation and endothelial capillary formation. Particulars: with respect to borrelidin; cited from earlier work.
The test system of experiment [7] is mouse colon adenocarcinoma cells. Particulars: subtoxic dose; cited from earlier work.

In brackets after ≈: the same amount, converted by molar mass.

On to `C[C@@H]1C[C@H](C)C[C@H](C)[C@@H](O)CC(=O)O[C@H]([C@@H]2CCC[C@H]2C(=O)O)C/C=C/C=C(/C#N)[C@H](O)[C@@H](C)C1` [Borrelidin], for which, in the experiment with caspase-3, the caspase-3 activation entry is reported as “activate”. Besides, the caspase-8 activation entry in the experiment with caspase-8 is “activate”. The “effectiveness against WiDr cell lines” value in experiment [1] was “effective”. Moreover, the “effectiveness against PC-3 cell lines” value in experiment [2] was “effective”. Further, the “IC50 for anti-angiogenesis activity lower than for inhibition of protein synthesis” value in the experiment with protein synthesis (0.4 ng/ml versus 20 ng/ml) is on record as 50 fold. In addition, the “IC50 inhibition of protein synthesis” value with protein synthesis (cultured rat cells) is 20 ng/mL. In addition, the “increment of vascular volume induced by WiDr cells” value with WiDr cells was “significantly reduce the increment of vascular volume”. Moreover, in experiment [3] (after removal of the primary tumour), the “propagation of metastatic nodules” value was “weakly inhibited”. The “cell cycle arrest in late G1 phase” value in experiment [4] was “arrests both haploid and diploid cells in late G1 phase”. Besides, the “IC50 anti-proliferative activity towards HUVEC” value in [5] (cell growth assay) was 6 ng/mL (≈ 12.3 nM). In addition, the “anti-proliferative activity weaker than the anti-angiogenesis activity” value in [5] (measured in the same medium) is reported as 15 fold. Moreover, in the experiment on B16-BL6 melanoma cells, the “inhibition of the formation of spontaneous lung metastases” value is “effective”. Also, in the experiment with capillary tube formation, the IC50 is 0.8 nM and the “IC50 capillary tube formation” value is 0.4 ng/mL (≈ 0.817 nM). Besides, in the experiment on S. albus J1074/pEM4A, the “haloes of growth inhibition” value is given as “Haloes indicating inhibition of growth were observed”.

Regarding `CC1CC(C)CC(C)C(O)C(C#N)=CC=CCC(C2CCCC2C(=O)OCCc2ccccn2)OC(=O)CC(O)C(C)C1` (stereo not drawn) [borrelidin-(2-pyridyl)-ethyl ester], the “selectivity index, capillary formation inhibitory activity versus cell proliferation” value in [6] is 7.5 fold.

For the compound `CC1CC(C)CC(C)C(O)CC(=O)OC(C2CCCC2C(=O)NCc2cccnc2)C(C#N)=CC=CCC(O)C(C)C1` (stereo not drawn) [borrelidin-(3-picolylamide)], the “metastasis-forming ability of cells transplanted into mouse spleen” value in [7] is reported as “considerably decreased”. Moreover, in [3] (rats, intraperitoneal and per os administration at subtoxic doses), the increase of micrometastases result is listed as “inhibit very considerably”.

As for `C[C@@H]1C[C@H](C)C[C@H](C)[C@@H](O)CC(=O)O[C@H]([C@@H]2CCC[C@H]2C(=O)NCCN2CCOCC2)C/C=C/C=C(/C#N)[C@H](O)[C@@H](C)C1` [borrelidin-morpholinoethyl amide], the “selectivity index, capillary formation inhibitory activity versus cell proliferation” value in experiment [6] was 6 fold.

In the case of `C[C@@H]1C[C@H](C)C[C@H](C)[C@@H](O)CC(=O)O[C@H]([C@@H]2CCC[C@H]2C(=O)OCCN2CCOCC2)C/C=C/C=C(/C#N)[C@H](O)[C@@H](C)C1` [borrelidin-morpholinoethyl ester], the “selectivity index, capillary formation inhibitory activity versus cell proliferation” value in experiment [6] is 60 fold.

borrelidin-amide: the “selectivity index, capillary formation inhibitory activity versus cell proliferation” value in [6] is 37 fold.

The IC50 is the concentration needed to halve the response being measured.

The values above are taken from patent publication US7560252B2, “Borrelidin-producing polyketide synthase and its use” (priority 2002, dated 2009).
